# Reference: patent US9309304B2, “Glycation cross-link breakers to increase resistance to enzymatic degradation” (NEW YORK SOCIETY FOR THE RUPTURED AND CRIPPLED MAINTAINING …, priority 2012, dated 2016)
# Columns and labels:
# collagenase = experiment: CEMKATS test of Alagebrium-treated 7-day glycated tendon fibers (Example 6); type: biochemical; conditions: 15 mM Alagebrium 12 hours
# Method: 7-day glycated (cross-linked) tendon fibers are immersed for 12 hours in a solution of 15 mM Alagebrium dissolved in PBS at a temperature ranging from about 4° C. to 37° C. The fibers are removed from the solution, rinsed in PBS, and then soaked in fresh PBS for 15 minutes. After this soak, the fibers are removed from the PBS bath, rinsed with fresh PBS. The visible PBS is blotted off and the fibers are interfaced with the CEMKATS system. Mechanical strain is applied as described in Example 1. The fiber reaches a peak stress during loading and subsequently relaxes to an equilibrium stress. Once the specimen reaches equilibrium, collagenase would be added. The resulting change in load would be observed and recorded (which would be converted post-hoc to stress).
# [1] = AGE cross-links in treated graft tissue by FTIR spectrum
# Method: For an ACL reconstruction, a bone-patellar tendon-bone graft (other eligible grafts include hamstring tendon) is harvested from a cadaveric donor per standard collection procedure. Before freezing, the graft tissue is immersed in a sterile filtered isotonic buffered saline solution containing Alagebrium at a concentration of 0.1 mM for 8 hours at a temperature of ranging from about 4° C. to 37° C. Following incubation with the cross-link breaking reagent, the specimen is rinsed with sterile isotonic buffered saline and then is immersed in a rinsing fluid, such as sterile isotonic buffered saline, with a volume of at least 10 times greater than the estimated volume of the specimen. The specimen remains immersed in the rinse fluid for 30 minutes. The rinsing and immersion step is repeated twice more with fresh rinse solution each time. The tissue specimen is then removed from the fluid, excess liquid is allowed to drain, any visible fluid is gently blotted off with sterile gauze, and is then frozen as per standard procedure. For an ACL reconstruction, a bone-patellar tendon-bone graft (other eligible grafts include hamstring tendon) is harvested from the patient as per standard collecting procedure. Before use, the graft tissue is wrapped in sterile gauze and is soaked in a sterile filtered isotonic buffered saline solution containing Alagebrium at a concentration of 100 mM for 15 minutes at a temperature ranging from about 4° C. to 37° C. Following incubation with the cross-link breaking reagent, the specimen is unwrapped, rinsed with sterile istonic buffered saline and then is wrapped again with sterile gauze and immersed in a rinsing fluid, such as sterile isotonic buffered saline, with a volume of at least 10 times greater than the estimated volume of the specimen. The specimen remains immersed in the rinse fluid for 15 minutes. The tissue specimen is then removed from the fluid, unwrapped, excess liquid is allowed to drain, any visible fluid is gently blotted off with sterile gauze, and then the graft is utilized as per standard procedure. […]
# [2] = Randomized control trial of treated grafts for ACL reconstruction; type: in vivo; conditions: for relative risk of negative outcomes (Lachman test, pivot-shift test, Drawer test): 6 and 12 months post-surgery
# Method: For an ACL reconstruction, a bone-patellar tendon-bone graft (other eligible grafts include hamstring tendon) is harvested from a cadaveric donor per standard collection procedure. Before freezing, the graft tissue is immersed in a sterile filtered isotonic buffered saline solution containing Alagebrium at a concentration of 0.1 mM for 8 hours at a temperature of ranging from about 4° C. to 37° C. Following incubation with the cross-link breaking reagent, the specimen is rinsed with sterile isotonic buffered saline and then is immersed in a rinsing fluid, such as sterile isotonic buffered saline, with a volume of at least 10 times greater than the estimated volume of the specimen. The specimen remains immersed in the rinse fluid for 30 minutes. The rinsing and immersion step is repeated twice more with fresh rinse solution each time. The tissue specimen is then removed from the fluid, excess liquid is allowed to drain, any visible fluid is gently blotted off with sterile gauze, and is then frozen as per standard procedure. […] For an ACL reconstruction, a bone-patellar tendon-bone graft (other eligible grafts include hamstring tendon) is harvested from the patient as per standard collecting procedure. Before use, the graft tissue is wrapped in sterile gauze and is soaked in a sterile filtered isotonic buffered saline solution containing Alagebrium at a concentration of 100 mM for 15 minutes at a temperature ranging from about 4° C. to 37° C. Following incubation with the cross-link breaking reagent, the specimen is unwrapped, rinsed with sterile istonic buffered saline and then is wrapped again with sterile gauze and immersed in a rinsing fluid, such as sterile isotonic buffered saline, with a volume of at least 10 times greater than the estimated volume of the specimen. The specimen remains immersed in the rinse fluid for 15 minutes. The tissue specimen is then removed from the fluid, unwrapped, excess liquid is allowed to drain, any visible fluid is gently blotted off with sterile gauze, and then the graft is utilized as per standard procedure.
# [3] = Relative fluorescence of solubilized fibers; type: physicochemical, rat; conditions: 7 days of 0.2 M ribose exposure, about 460 nm
# Method: Ribose incorporation into fibers over time was assessed by fluorescence of solubilized fibers following 0 to 10 days of incubation (Verzijl et al. 2002). Fibers were incubated in 0.2 M ribose solution (solution was exchanged with fresh ribose solution at day 3) and sample fibers were removed daily, rinsed in PBS, and then stored at 4° C. until the end of the time course. Fibers were weighed, then dissolved at 60° C. in a 1:20 dilution of papain (Carica Papaya, Roche Diagnostics, Indianapolis, Ind.) in buffer per the commercial protocol at a concentration of 1 mg tendon per 50 uL of papain solution. Relative fluorescence was measured at about 460 nm using a spectrophotometer (340 ATTC, Tecan US, Chapel Hill, N.C.) as reported by Verzijl et al. 2002. Maximum fluorescence was estimated from measurements of fibers incubated in ribose for 5 weeks.
# [4] = cadaveric bone-patellar tendon-bone graft, 0.1 mM for 8 hours
relative fluorescence of solubilized rat tail tendon [3],SMILES,EMK function values versus cross-linked control specimens (collagenase; higher strain (above about 3%)),EMK function values versus cross-linked control specimens (collagenase; low strain (less than about 1.25%)),"amounts of AGE cross-links (AGE associated absorption peak, FTIR) ([1]; autologous bone-patellar tendon-bone graft, 100 mM for 15 minutes)","amounts of AGE cross-links (AGE associated absorption peak, FTIR) [1, 4]","stiffness of treated specimen [1, 4]","surgical outcome of ACL reconstruction ([2]; operating room treated autograft, 100 mM for 15 minutes)","surgical outcome of ACL reconstruction ([2]; tissue bank treated graft, 0.1 mM for 8 hours)","relative risk of negative outcomes (Lachman test, pivot-shift test, Drawer test) ([2]; versus placebo-treated grafts, operating room treated autograft)","relative risk of negative outcomes (Lachman test, pivot-shift test, Drawer test) ([2]; versus untreated grafts, tissue bank treated graft)"
–,"Cc1sc[n+](CC(=O)c2ccccc2)c1C.[Cl-] [Alagebrium, 3-phenacyl-4,5-dimethylthiazolium chloride]",higher value for the control specimens than the Alagebrium-treated specimens,lower for controls than Alagebrium-treated specimens,significantly decreased amounts of AGE cross-links,significantly decreased amounts of AGE cross-links,less stiff after treatment,improved surgical outcome,improved surgical outcome,lower relative risk,lower relative risk
significantly increased,"O=C[C@H](O)[C@H](O)[C@H](O)CO [ribose, D-Ribose]",–,–,–,–,–,–,–,–,–
